Results on 2 molecules are retold here after patent publication US5932608A, “Melatonin derivative dermocosmetic compositions for whitening/depigmenting the skin” (Societe L'Oreal S.A., priority 1996, dated 1999).

The test system of one assay is fungal tyrosinase. Briefly: in vitro test of inhibition of tyrosinase (dopachrome formation, 475 nm). Format: biochemical. As to conditions: for inhibition of the tyrosinase activity (decrease in the percentage of formation of dopachrome): 25° C., pH 6.5, FIGS. 1 and 2. An excerpt: According to this test, the amount of dopachrome formed during the reaction sequence for the conversion of tyrosine into melanins was monitored by visible spectrometry at 475 nm. These reactions were catalyzed in vitro by fungal tyrosinase, in the presence of a reductive co-substrate (for example L-dopa in small amounts) in order to initiate the hydroxylation reaction of the L-tyrosine into L-dopa, which was then oxidized catalytically into dopaquinone and then into dopachrome.
The concentration of dopachrome formed over time was thus measured in the presence and absence of the inhibitor. The inhibition effect is expressed by lowering the maximum amount of dopachrome formed (optical density value at 475 nm read at the plateau of the curve) relative to the amount obtained in the absence of inhibitor.
A. 0.1M phosphate buffer pH 6.5 (1% Tween 20)
B. Stock solution of 2×10^-3 M L-tyrosine in A
C. Stock solution of 10^-4 M L-dopa in A
D. Stock solution of fungal tyrosinase containing 2400 units/ml in A
E. Stock solution of the inhibitor at 10^-2 M in A
The solutions C and D were prepared on the day of use.
Reference cell: 3 ml of A
Homogenize and equilibrate at 25° C.
Mixed together rapidly and observed the kinetics by measuring the absorbance as a function of time.

In a further assay the test system is skin pigmentation. The conditions noted are these: exogenous melatonin; D. B. McElhinney et al., J. Invest. Dermatol, 102 (2), 258-9 (1994); cited from earlier work.

Molecules are shown by their SMILES.

On to `COc1cc2c(CCNC(C)=O)c[nH]c2cc1O` [6-hydroxymelatonin], for which the “inhibition of the tyrosinase activity (decrease in the percentage of formation of dopachrome)” value in the assay on fungal tyrosinase (0.1 ml of solution E (inhibitor 10^-2 M stock) in 3 ml test cell) and with fungal tyrosinase (0.2 ml of solution E (inhibitor 10^-2 M stock) in 3 ml test cell) was “significant inhibition” each time.

Take `COc1ccc2[nH]cc(CCNC(C)=O)c2c1` [melatonin, N-acetyl-5-methoxytryptamine]: in the assay with skin pigmentation, the “effect on skin pigmentation in man” value is “no effect”. In addition, the “inhibition of the tyrosinase activity” value in the assay with fungal tyrosinase (similar tests, amount of inhibitor not stated) is reported as “absence of inhibition”.
